# Data published in US20250270213A1, “PI3Ka INHIBITORS” (Synnovation Therapeutics, Inc., priority 2022, published 2025).
# Test system: T47D (PIK3CA H1047R) cells
# Experiment: pS473 AKT assay with 2.5% FBS, T47D cells
# Format: cell-based
# Conditions: Homo sapiens, pSer473 AKT, DMEM with 2.5% FBS, 2 h treatment, read-out: T47D_IC50
# In short: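 In-cell chemiluminescent ELISA of AKT Ser473 phosphorylation, using anti-pSer473 primary and HRP secondary antibodies on fixed cells. T47D (PIK3CA H1047R) cells had 2 h of compound treatment in DMEM containing 2.5% FBS; IC50 derived from dose-response.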
row,SMILES,IC50 [nM]
1,"CCOC(=O)N1CCC(n2cc3c4c(C(C)Nc5ccc(Cl)nc5-c5cnn(C)c5)cc(C)cc4c(=O)n(C)c3n2)CC1 (stereo not shown) [Example 210, ethyl 4-(9-(1-((6-chloro-2-(1-methyl-1H-pyrazol-4-yl)pyridin-3-yl)amino)ethyl)-4,7-dimethyl-5-oxo-4,5-dihydro-2H-pyrazolo[3,4-c]isoquinolin-2-yl)piperidine-1-carboxylate]",< 1000
2,"Cc1cc(C(C)Nc2ccc(Cl)nc2-c2cnn(C)c2)c2c(c1)c(=O)n(C)c1nn(C3CCN(C(=O)N(C)C)CC3)cc21 (stereo not shown) [Example 211, 4-(9-(1-((6-chloro-2-(1-methyl-1H-pyrazol-4-yl)pyridin-3-yl)amino)ethyl)-4,7-dimethyl-5-oxo-4,5-dihydro-2H-pyrazolo[3,4-c]isoquinolin-2-yl)-N,N-dimethylpiperidine-1-carboxamide]",< 1000
3,"Cc1cc(C(C)Nc2ccc(Cl)nc2-c2cnn(C)c2)c2c(c1)c(=O)n(C)c1nn(C3CCN(CC(F)F)CC3)cc21 (stereo not shown) [Example 212, 9-(1-((6-Chloro-2-(1-methyl-1H-pyrazol-4-yl)pyridin-3-yl)amino)ethyl)-2-(1-(2,2-difluoroethyl)piperidin-4-yl)-4,7-dimethyl-2,4-dihydro-5H-pyrazolo[3,4-c]isoquinolin-5-one]",< 1000
4,"[2H]C([2H])([2H])n1c(=O)c2cc(C)cc(C(C)Nc3ccc(Cl)nc3-c3noc(=O)[nH]3)c2c2cnn([C@H]3CCOC3)c21 (stereo partly drawn) [Example 213, 3-[6-Chloro-3-[1-[7-methyl-5-oxo-3-[(3S)-tetrahydrofuran-3-yl]-4-(trideuteriomethyl)pyrazolo[3,4-c]isoquinolin-9-yl]ethylamino]-2-pyridyl]-4H-1,2,4-oxadiazol-5-one]",< 1000
5,"[2H]C([2H])([2H])n1c(=O)c2cc(C)cc(C(C)Nc3ccc(Cl)nc3-c3cnn(C)c3)c2c2cnn([C@H]3CCOC3)c21 (stereo partly drawn) [Example 214, 9-(1-((6-chloro-2-(1-methyl-1H-pyrazol-4-yl)pyridin-3-yl)amino)ethyl)-7-methyl-4-(methyl-d3)-3-((S)-tetrahydrofuran-3-yl)-3,4-dihydro-5H-pyrazolo[3,4-c]isoquinolin-5-one]",< 1000
6,"CCn1c(=O)c2cc(C)cc(C(C)Nc3ccc(Cl)nc3-c3noc(=O)[nH]3)c2c2cnn([C@H]3CCOC3)c21 (stereo partly drawn) [Example 215, 3-(6-chloro-3-((1-(4-ethyl-7-methyl-5-oxo-3-((S)-tetrahydrofuran-3-yl)-4,5-dihydro-3H-pyrazolo[3,4-c]isoquinolin-9-yl)ethyl)amino)pyridin-2-yl)-1,2,4-oxadiazol-5(4H)-one]",< 1000
7,"CCn1c(=O)c2cc(C)cc(C(C)Nc3ccc(Cl)nc3-c3ncn(C)n3)c2c2cnn([C@H]3CCOC3)c21 (stereo partly drawn) [Example 216, 9-(1-((6-chloro-2-(1-methyl-1H-1,2,4-triazol-3-yl)pyridin-3-yl)amino)ethyl)-4-ethyl-7-methyl-3-((S)-tetrahydrofuran-3-yl)-3,4-dihydro-5H-pyrazolo[3,4-c]isoquinolin-5-one]",< 1000
8,"CCn1c(=O)c2cc(C)cc(C(C)Nc3ccc(Cl)nc3-c3cnn(C4CCN(C)CC4)c3)c2c2cnn([C@H]3CCOC3)c21 (stereo partly drawn) [Example 217, 9-(1-((6-chloro-2-(1-(1-methylpiperidin-4-yl)-1H-pyrazol-4-yl)pyridin-3-yl)amino)ethyl)-4-ethyl-7-methyl-3-((S)-tetrahydrofuran-3-yl)-3,4-dihydro-5H-pyrazolo[3,4-c]isoquinolin-5-one]",< 1000
9,"CCn1c(=O)c2cc(C)cc(C(C)Nc3ccc(Cl)nc3-c3ccnc(C)c3)c2c2cnn([C@H]3CCOC3)c21 (stereo partly drawn) [Example 218, 9-(1-((6-chloro-2′-methyl-[2,4′-bipyridin]-3-yl)amino)ethyl)-4-ethyl-7-methyl-3-((S)-tetrahydrofuran-3-yl)-3,4-dihydro-5H-pyrazolo[3,4-c]isoquinolin-5-one]",< 1000
10,"CCn1c(=O)c2cc(C)cc(C(C)Nc3ccc(Cl)nc3-c3ccc(=O)n(C)c3)c2c2cnn([C@H]3CCOC3)c21 (stereo partly drawn) [Example 219, 9-(1-((6-chloro-1′-methyl-6′-oxo-1′,6′-dihydro-[2,3′-bipyridin]-3-yl)amino)ethyl)-4-ethyl-7-methyl-3-((S)-tetrahydrofuran-3-yl)-3,4-dihydro-5H-pyrazolo[3,4-c]isoquinolin-5-one]",< 1000
11,"CCn1c(=O)c2cc(C)cc(C(C)Nc3ccc(Cl)nc3-c3ccc(C(=O)NC)nc3)c2c2cnn([C@H]3CCOC3)c21 (stereo partly drawn) [Example 220, 6-chloro-3-((1-(4-ethyl-7-methyl-5-oxo-3-((S)-tetrahydrofuran-3-yl)-4,5-dihydro-3H-pyrazolo[3,4-c]isoquinolin-9-yl)ethyl)amino)-N-methyl-[2,3′-bipyridine]-6′-carboxamide]",< 1000
12,"CCn1ncc2c3c(C(C)Nc4ccc(Cl)nc4-c4ncn(C)n4)cc(C)cc3c(=O)n(C3CC3)c21 (stereo not shown) [Example 221, 9-(1-((6-Chloro-2-(1-methyl-1H-1,2,4-triazol-3-yl)pyridin-3-yl)amino)ethyl)-4-cyclopropyl-3-ethyl-7-methyl-3,4-dihydro-5H-pyrazolo[3,4-c]isoquinolin-5-one]",< 1000
13,"CCn1ncc2c3c(C(C)Nc4ccc(Cl)nc4-c4ccc(=O)n(C)c4)cc(C)cc3c(=O)n(C3CC3)c21 (stereo not shown) [Example 222, 9-[1-[[6-chloro-2-(1-methyl-6-oxo-3-pyridyl)-3-pyridyl]amino]ethyl]-4-cyclopropyl-3-ethyl-7-methyl-pyrazolo[3,4-c]isoquinolin-5-one]",< 1000
14,"CCn1ncc2c3c(C(C)Nc4ccc(Cl)nc4-c4ncn(C)n4)cc(C)cc3c(=O)n(C3CCOC3)c21 (stereo not shown) [Example 223, 9-[1-[[6-Chloro-2-(1-methyl-1,2,4-triazol-3-yl)-3-pyridyl]amino]ethyl]-3-ethyl-7-methyl-4-tetrahydrofuran-3-yl-pyrazolo[3,4-c]isoquinolin-5-one]",< 1000
15,"CCn1ncc2c3c(C(C)Nc4ccc(Cl)nc4-c4ncn(C)n4)cc(C)cc3c(=O)n(CCO)c21 (stereo not shown) [Example 224, 9-[1-[[6-Chloro-2-(1-methyl-1,2,4-triazol-3-yl)-3-pyridyl]amino]ethyl]-3-ethyl-4-(2-hydroxyethyl)-7-methyl-pyrazolo[3,4-c]isoquinolin-5-one]",< 1000
16,"CCn1ncc2c3c(CNc4ccc(Cl)nc4-c4ccc(C(=O)NC)c(F)c4)cc(C)cc3c(=O)n(C)c21 [Example 225, 4-(6-Chloro-3-(((3-ethyl-4,7-dimethyl-5-oxo-4,5-dihydro-3H-pyrazolo[3,4-c]isoquinolin-9-yl)methyl)amino)pyridin-2-yl)-2-fluoro-N-methylbenzamide]",< 1000
17,"CCn1ncc2c3c(C(C)Oc4ccc(Cl)nc4-c4c[nH]nc4C)cc(C)cc3c(=O)n(C)c21 (stereo not shown) [Example 226, 9-(1-((6-Chloro-2-(3-methyl-1H-pyrazol-4-yl)pyridin-3-yl)oxy)ethyl)-3-ethyl-4,7-dimethyl-3,4-dihydro-5H-pyrazolo[3,4-c]isoquinolin-5-one]",< 1000
18,"[2H]C([2H])([2H])n1c(=O)c2cc(C)cc(C(C)Nc3ccc(Cl)nc3-c3noc(=O)[nH]3)c2c2cnn(CC)c21 (stereo not shown) [Example 227, 3-(6-Chloro-3-((1-(3-ethyl-7-methyl-4-(methyl-d3)-5-oxo-4,5-dihydro-3H-pyrazolo[3,4-c]isoquinolin-9-yl)ethyl)amino)pyridin-2-yl)-1,2,4-oxadiazol-5(4H)-one]",< 1000
19,"CCn1ncc2c3c(C(C)Nc4ccc(Cl)nc4-c4ncn(C)n4)cc(C)cc3c(=O)n(C)c21 (stereo not shown) [Example 228, 9-(1-((6-chloro-2-(1-methyl-1H-1,2,4-triazol-3-yl)pyridin-3-yl)amino)ethyl)-3-ethyl-4,7-dimethyl-3,4-dihydro-5H-pyrazolo[3,4-c]isoquinolin-5-one]",< 1000
20,"CCn1ncc2c3c(C(C)Nc4ccc(Cl)nc4-c4nncn4C)cc(C)cc3c(=O)n(C)c21 (stereo not shown) [Example 229, 9-(1-((6-chloro-2-(4-methyl-1H-1,2,4-triazol-3-yl)pyridin-3-yl)amino)ethyl)-3-ethyl-4,7-dimethyl-3,4-dihydro-5H-pyrazolo[3,4-c]isoquinolin-5-one]",< 1000
21,"CCn1ncc2c3c(C(C)Nc4ccc(Cl)nc4-c4nnn[nH]4)cc(C)cc3c(=O)n(C)c21 (stereo not shown) [Example 230, 9-(1-((6-chloro-2-(1H-tetrazol-5-yl)pyridin-3-yl)amino)ethyl)-3-ethyl-4,7-dimethyl-3,4-dihydro-5H-pyrazolo[3,4-c]isoquinolin-5-one]",< 1000
22,"CCn1ncc2c3c(C(C)Nc4ccc(Cl)nc4-c4cnnn4C)cc(C)cc3c(=O)n(C)c21 (stereo not shown) [Example 231, 9-(1-((6-chloro-2-(1-methyl-1H-1,2,3-triazol-5-yl)pyridin-3-yl)amino)ethyl)-3-ethyl-4,7-dimethyl-3,4-dihydro-5H-pyrazolo[3,4-c]isoquinolin-5-one]",< 1000
23,"CCn1ncc2c3c(C(C)Nc4ccc(Cl)nc4-c4cnn(C5CCN(C(=O)N(C)C)CC5)c4)cc(C)cc3c(=O)n(C)c21 (stereo not shown) [Example 233, 4-(4-(6-chloro-3-((1-(3-ethyl-4,7-dimethyl-5-oxo-4,5-dihydro-3H-pyrazolo[3,4-c]isoquinolin-9-yl)ethyl)amino)pyridin-2-yl)-1H-pyrazol-1-yl)-N,N-dimethylpiperidine-1-carboxamide]",< 1000
24,"CCn1ncc2c3c(C(C)Nc4ccc(Cl)nc4-c4cnn(C5CCN(CCC#N)CC5)c4)cc(C)cc3c(=O)n(C)c21 (stereo not shown) [Example 234, 3-(4-(4-(6-chloro-3-((1-(3-ethyl-4,7-dimethyl-5-oxo-4,5-dihydro-3H-pyrazolo[3,4-c]isoquinolin-9-yl)ethyl)amino)pyridin-2-yl)-1H-pyrazol-1-yl)piperidin-1-yl)propanenitrile]",< 1000

# Same assay, conditions: pSer473 AKT, DMEM with 2.5% FBS, 2 h treatment, read-out: T47D_IC50
row,SMILES,IC50 [nM]
1,"CCn1ncc2c3c(C(C)Nc4ccc(Cl)nc4-c4ccc(C(=O)O)cc4)cc(C)cc3c(=O)n(C)c21 (stereo not shown) [Example 232, 4-(6-chloro-3-((1-(3-ethyl-4,7-dimethyl-5-oxo-4,5-dihydro-3H-pyrazolo[3,4-c]isoquinolin-9-yl)ethyl)amino)pyridin-2-yl)benzoic acid]",< 1000
